Experimental data: patent US9018214B2, “Bicyclic heterocycle compounds and their uses in therapy” (Astex Therapeutics Limited, priority 2011, dated 2015)
Counter-ions that a name gives are not always drawn. Like-named read-outs stand apart in the source and are kept apart here.

Key:
[1] = system: EVSA-T (human breast carcinoma); test: Anti-proliferative activity, Alamar Blue assay, EVSA-T; format: cell-based; details: for EC50 / inhibition at 10 µM: Homo sapiens; for inhibition at 10 µM: read-out: EVSA-T prolif: % inhibition
[2] = target: BIR3 domain of human XIAP (residues 252-350) (Homo sapiens (Human), UniProt P98170); test: XIAP in vitro competitive displacement binding assay (fluorescence polarization); details: for IC50: read-out: IC50 or PI Xiap: IC50
[3] = target: BIR3 domain of human cIAP-1 (residues 267-363) (Homo sapiens (Human), UniProt Q13490); test: cIAP-1 in vitro competitive displacement binding assay (fluorescence polarization; Probe A AVPIK(5&6FAM)-amide or Probe B AbuRPFK(5&6FAM)-amide)
[4] = EVSA-T, 72 hours, Alamar Blue, read-out: EVSA-T prolif (EC50)
[5] = Probe A AVPIK(5&6FAM)-amide, read-out: IC50 or PI cIAP1: IC50
[6] = Probe B AbuRPFK(5&6FAM)-amide, read-out: IC50 or PI cIAP1: IC50
[7] = read-out: IC50 or PI cIAP1: IC50
[8] = EVSA-T cell line, 72 hours, Alamar Blue, read-out: EC50, inhibition of cell growth
[9] = EVSA-T, 72 h, read-out: EVSA-T prolif (EC50)
[10] = EVSA-T, 72 h, read-out: EC50, inhibition of cell growth
[11] = 3 h, read-out: IC50 or PI cIAP1: PI

Row | SMILES | EC50 [1, 4] [nM] | IC50 [2] [nM] | EC50 [1, 9] [nM] | other results
1 | COC[C@H]1CN[C@H](C)CN1CC(=O)N1CC(C)(c2ccccc2)c2ccc(C#N)cc21 (mixture of isomers) [Example 136, 1-{2-[(2R,5R)-2-(Methoxymethyl)-5-methylpiperazin-1-yl]acetyl}-3-methyl-3-phenyl-2,3-dihydro-1H-indole-6-carbonitrile] | 2800 | 110 | – | –
2 | C[C@@H]1CN(CC(=O)N2CCc3cc(=O)n(Cc4ccccc4)cc32)CCN1.Cl [Example 39, 6-Benzyl-1-[2-((R)-3-methyl-piperazin-1-yl)-acetyl]-1,2,3,6-tetrahydro-pyrrolo[2,3-c]pyridin-5-one hydrochloride salt] | – | – | – | EVSA-T prolif: % inhibition ([1]; concentration not printed (cell truncated)): −15% at; inhibition at 1 µM ([3]; 3 h, Probe A, @ 1 μM, read-out: IC50 or PI cIAP1: PI): 46%; inhibition at 3 µM ([2]; 1 h, @ 3 μM, read-out: IC50 or PI Xiap: PI): 55%
3 | C[C@@H]1CN(CC(=O)N2CC(C)(C)c3ccc(Cl)cc32)[C@@H](CO)CN1 [Example 40, 1-(6-Chloro-3,3-dimethyl-2,3-dihydro-indol-1-yl)-2-((2R,5R)-2-hydroxymethyl-5-methyl-piperazin-1-yl)-ethanone hydrochloride salt] | – | 960 | – | inhibition at 10 µM ([1]; EVSA-T, at 10 μM): 45%; IC50 [3]: < 1000 nM; IC50 [3, 5]: 820 nM
4 | C[C@@H]1CN(CC(=O)N2CCc3cc(F)c(S(=O)(=O)c4ccccc4)cc32)CCN1 [Example 41, 1-(6-Benzenesulfonyl-5-fluoro-2,3-dihydro-indol-1-yl)-2-((R)-3-methyl-piperazin-1-yl)-ethanone] | 5700 | 470 | – | IC50 [3, 5]: 1300 nM
5 | C[C@@H]1CN(CC(=O)N2CC(C)(C)c3ccc(S(=O)(=O)c4ccccc4)cc32)CCN1 [Example 43, 1-(6-Benzenesulfonyl-3,3-dimethyl-2,3-dihydro-indol-1-yl)-2-((R)-3-methyl-piperazin-1-yl)-ethanone hydrochloride salt] | 2400 | 640 | – | IC50 [3, 5]: 450 nM
6 | CC(=O)NC[C@H]1CN[C@H](C)CN1CC(=O)N1CC(C)(C)c2ccc(Cl)cc21 [Example 45, N-{(2R,5R)-1-[2-(6-Chloro-3,3-dimethyl-2,3-dihydro-indol-1-yl)-2-oxo-ethyl]-5-methyl-piperazin-2-ylmethyl}-acetamide hydrochloride salt] | 5200 | 1100 | – | IC50 [3, 6]: 580 nM
7 | C[C@@H]1CN(CC(=O)N2CC(C)(C)c3cc(F)c(S(=O)(=O)N4CCCC4)cc32)CCN1 [Example 49, 1-[5-Fluoro-3,3-dimethyl-6-(pyrrolidine-1-sulfonyl)-2,3-dihydro-indol-1-yl]-2-((R)-3-methyl-piperazin-1-yl)-ethanone dihydrochloride salt] | – | 640 | – | inhibition at 10 µM ([1]; EVSA-T): 2%; IC50 [3, 7]: 4100 nM
8 | CNC(=O)[C@H]1CN[C@H](C)CN1CC(=O)N1CC(C)(C)c2cc(F)c(S(=O)(=O)c3ccccc3)cc21 [Example 56, (2R,5R)-1-[2-(6-Benzenesulfonyl-5-fluoro-3,3-dimethyl-2,3-dihydro-indol-1-yl)-2-oxo-ethyl]-5-methyl-piperazine-2-carboxylic acid methylamide hydrochloride salt] | 2300 | 110 | – | EC50 [1, 8]: < 10000 nM; IC50 [3]: < 1000 nM; IC50 [3, 6]: 130 nM
9 | CCS(=O)(=O)c1ccc2c(c1)N(C(=O)CN1C[C@@H](C)NC[C@@H]1COC)CC2(C)C [Example 59, 1-(6-Ethane-sulfonyl-3,3-dimethyl-2,3-dihydro-indol-1-yl)-2-((2R,5R)-2-methoxymethyl-5-methyl-piperazin-1-yl)-ethanone dihydrochloride salt] | – | 310 | 9700 | IC50 [3, 7]: 500 nM
10 | CNS(=O)(=O)c1ccc2c(c1)N(C(=O)CN1C[C@@H](C)NC[C@@H]1COC)CC2(C)C [Example 61, 1-[2-((2R,5R)-2-Methoxymethyl-5-methyl-piperazin-1-yl)-acetyl]-3,3-dimethyl-2,3-dihydro-1H-indole-6-sulfonic acid methylamide dihydrochloride salt] | – | 220 | – | inhibition at 10 µM ([1]; EVSA-T): 0%; IC50 [3, 7]: 1600 nM
11 | COC[C@H]1CN[C@H](C)CN1CC(=O)N1CC(C)(C)c2ccc(S(=O)(=O)N(C)C)cc21 [Example 68, 1-[2-((2R,5R)-2-Methoxymethyl-5-methyl-piperazin-1-yl)-acetyl]-3,3-dimethyl-2,3-dihydro-1H-indole-6-sulfonic acid dimethylamide dihydrochloride salt] | – | 230 | 6400 | EC50 [1, 10]: < 10000 nM; IC50 [3, 7]: 1200 nM
12 | COC[C@H]1CN[C@H](C)CN1CC(=O)N1CC(C)(C)c2ccc(S(=O)(=O)NC(C)C)cc21 [Example 69, 1-[2-((2R,5R)-2-Methoxymethyl-5-methyl-piperazin-1-yl)-acetyl]-3,3-dimethyl-2,3-dihydro-1H-indole-6-sulfonic acid isopropylamide dihydrochloride salt] | – | 280 | – | inhibition at 10 µM ([1]; EVSA-T): 54%; IC50 [3, 7]: 1400 nM
13 | COC[C@H]1CN[C@H](C)CN1CC(=O)N1CC(C)(C)c2ccc(S(=O)(=O)Cc3ccccc3)cc21 [Example 70, 1-(3,3-Dimethyl-6-phenylmethane-sulfonyl-2,3-dihydro-indol-1-yl)-2-((2R,5R)-2-methoxymethyl-5-methyl-piperazin-1-yl)-ethanone dihydrochloride salt] | – | 380 | 7900 | EC50 [1, 10]: < 10000 nM; IC50 [3, 7]: 820 nM
14 | COC[C@H]1CN[C@H](C)CN1CC(=O)N1CC2(CN(C(C)=O)C2)c2ccc(Cl)cc21 [Example 71, 1-{1-Acetyl-6′-chloro-1′,2′-dihydrospiro[azetidine-3,3′-indole]-1′-yl}-2-[(2R,5R)-2-(methoxymethyl)-5-methylpiperazin-1-yl]ethan-1-one hydrochloride salt] | 7700 | 490 | – | EC50 [1, 8]: < 10000 nM; IC50 [3, 6]: 540 nM
15 | COC[C@H]1CN[C@H](C)CN1CC(=O)N1C[C@](C)(c2ccccc2)c2ccc(C#N)cc21 [Example 140, (3R)-1-{2-[(2R,5R)-2-(Methoxymethyl)-5-methylpiperazin-1-yl]acetyl}-3-methyl-3-phenyl-2,3-dihydro-1H-indole-6-carbonitrile] | 8600 | 94 | – | EC50 [1, 8]: < 10000 nM
16 | Cc1cnn(C[C@H]2CN[C@H](C)CN2CC(=O)N2CC(C)(C)c3cnc(Cc4ccccc4)cc32)c1 [Example 147, 1-{6-Benzyl-3,3-dimethyl-1H,2H,3H-pyrrolo[3,2-c]pyridin-1-yl}-2-[(2R,5R)-5-methyl-2-[(4-methyl-1H-pyrazol-1-yl)methyl]piperazin-1-yl]ethan-1-one hydrochloride] | – | – | 110 | inhibition at 0.04 µM ([2]; 1 h, @ 0.04 μM, read-out: IC50 or PI Xiap: PI): 49%
17 | C[C@@H]1CN(CC(=O)N2CC(C)(C)c3ncc(Cc4ccc(F)cc4F)cc32)[C@@H](CN2CCCC2=O)CN1 [Example 199, 1-{[(2R,5R)-1-(2-{6-[(2,4-Difluorophenyl)methyl]-3,3-dimethyl-1H,2H,3H-pyrrolo[3,2-b]pyridin-1-yl}-2-oxoethyl)-5-methylpiperazin-2-yl]methyl}pyrrolidin-2-one dihydrochloride] | – | 63 | 5.6 | –
18 | CC(C)CC(F)(F)c1cnc2c(c1)N(C(=O)CN1C[C@@H](C)NC[C@@H]1CN1CCCC1=O)CC2(C)C [Example 216, 1-{[(2R,5R)-1-{2-[6-(1,1-Difluoro-3-methylbutyl)-3,3-dimethyl-1H,2H,3H-pyrrolo[3,2-b]pyridin-1-yl]-2-oxoethyl}-5-methylpiperazin-2-yl]methyl}pyrrolidin-2-one dihydrochloride] | – | – | 51 | inhibition at […] [3, 11]: 68%
19 | C[C@@H]1CN(CC(=O)N2CC(C)(C)c3ncc(Cc4ccc(F)cc4)cc32)[C@@H](CN2CCOCC2)CN1 [Example 234, 1-{6-[(4-Fluorophenyl)methyl]-3,3-dimethyl-1H,2H,3H-pyrrolo[3,2-b]pyridin-1-yl}-2-[(2R,5R)-5-methyl-2-(morpholin-4-ylmethyl)piperazin-1-yl]ethan-1-one dihydrochloride] | – | 74 | 9.6 | –
20 | CCCC(F)(F)c1cnc2c(c1)N(C(=O)CN1C[C@@H](C)NC[C@@H]1CN1CCOCC1)CC2(C)C [Example 238, 1-[6-(1,1-Difluorobutyl)-3,3-dimethyl-1H,2H,3H-pyrrolo[3,2-b]pyridin-1-yl]-2-[(2R,5R)-5-methyl-2-(morpholin-4-ylmethyl)piperazin-1-yl]ethan-1-one hydrochloride] | – | – | 68 | inhibition at […] ([3]; 3 h, Probe B, @ 0.012 μM, read-out: IC50 or PI cIAP1: PI): 69%
21 | C[C@@H]1CN(CC(=O)N2CC(C)(C)c3ncc(Cc4ccc(F)cc4)cc32)[C@@H](CN2CC[C@@H](F)C2)CN1 [Example 241, 1-{6-[(4-Fluorophenyl)methyl]-3,3-dimethyl-1H,2H,3H-pyrrolo[3,2-b]pyridin-1-yl}-2-[(2R,5R)-2-{[(3R)-3-fluoropyrrolidin-1-yl]methyl}-5-methylpiperazin-1-yl]ethan-1-one dihydrochloride] | – | – | 7.2 | inhibition at […] [3, 11]: 98%
22 | C[C@@H]1CN(CC(=O)N2CC(C)(C)c3ncc(Cc4ccccc4F)cc32)[C@@H](CN2CC[C@@H](F)C2)CN1 [Example 250, 1-{6-[(2-Fluorophenyl)methyl]-3,3-dimethyl-1H,2H,3H-pyrrolo[3,2-b]pyridin-1-yl}-2-[(2R,5R)-2-{[(3R)-3-fluoropyrrolidin-1-yl]methyl}-5-methylpiperazin-1-yl]ethan-1-one dihydrochloride] | – | – | 16 | inhibition at […] [3, 11]: 89%
